Data reported in the NIST ThermoML archive (doi:10.1021/je5007532).

How the values were obtained:
[1] = xn = mol fraction of the nth substance listed; conditions: x2 = 0; for viscosity: 100 kPa, Falling or rolling sphere viscometry; for viscosity / speed of sound / mass density: Liquid; for speed of sound / mass density: 101 kPa; for speed of sound: Sing-around technique in a fixed-path interferometer; for mass density: Vibrating tube method
[2] = for viscosity: 100 kPa, Falling or rolling sphere viscometry; for viscosity / speed of sound / mass density: Liquid; for speed of sound / mass density: 101 kPa; for speed of sound: Sing-around technique in a fixed-path interferometer; for mass density: Vibrating tube method; for surface tension liquid-gas: 294.4 K, Pendant drop shape

CCCCCCC [heptane] + CC(C)CC(C)(C)C
[1]
Conditions	mass density [kg/m3]	speed of sound [m/s]	viscosity [mPa·s]
293.15 K	683.85	1151.7	0.41
298.15 K	679.61	1130.1	0.389
303.15 K	675.35	1109.1	0.368
308.15 K	671.05	1087.5	0.349
313.15 K	666.73	1066.6	–
318.15 K	662.38	1045.4	0.315
323.15 K	657.99	1024.7	0.3
328.15 K	653.57	1003.6	0.284
333.15 K	649.11	983	0.271
338.15 K	644.6	962.3	–

Conditions	surface tension liquid-gas [mN/m]
[1], 294.4 K, Pendant drop shape	20.3

CCCCCCC [heptane]
[2]
Conditions	mass density [kg/m3]	speed of sound [m/s]	viscosity [mPa·s]
293.15 K	683.85	1151.7	0.41
298.15 K	679.61	1130.1	0.389
303.15 K	675.35	1109.1	0.368
308.15 K	671.05	1087.5	0.349
313.15 K	666.73	1066.6	–
318.15 K	662.38	1045.4	0.315
323.15 K	657.99	1024.7	0.3
328.15 K	653.57	1003.6	0.284
333.15 K	649.11	983	0.271
338.15 K	644.6	962.3	–

Conditions	surface tension liquid-gas [mN/m]
[2]	20.3

CC(C)CC(C)(C)C [2,2,4-trimethylpentane]
[2]
Conditions	mass density [kg/m3]	speed of sound [m/s]	viscosity [mPa·s]
293.15 K	691.84	1103.2	0.501
298.15 K	687.7	1082	0.473
303.15 K	683.59	1061.4	0.447
308.15 K	679.4	1040.4	0.423
313.15 K	675.23	1020	–
318.15 K	670.98	999.3	0.38
323.15 K	666.75	979.2	0.361
328.15 K	662.44	958.7	0.343
333.15 K	658.16	938.6	0.326
338.15 K	653.8	918.7	–
343.15 K	649.4	899	–

Conditions	surface tension liquid-gas [mN/m]
[2]	18.7
